Reference: the supplement of paper PMC8671470
± gives the standard deviation of the averaged measurements.

Columns and labels:
Conditions in all cases: 72 h
HL-60 [1] = test: area under dose-response curve (viability, 1 nM-10 uM) (fraction (0-1)); higher = more sensitive
In short: (§1)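 HL-60 cells in RPMI 1640 with 10% FBS were rescreened against the full library on 384-well plates at five tenfold concentrations, 1–10,000 nM, in duplicate. Each screen was run with DMSO or 100 nM of one of three metabolic inhibitors, for 72 h at 37 °C, 5% CO2. Viability was read by CellTiter-Glo and normalised to DMSO and 10 μM proteasome-inhibitor wells. Where given, area under the curve came from four-parameter log-logistic fits (drc, PharmacoGx).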

MV4-11 [2] = system: MV4-11
In short: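 The IC50 was derived from log-logistic dose–response fitting. Each of fifteen myeloid leukaemia cell lines, seeded in RPMI 1640 within its linear growth range, was exposed in 384-well plates to five tenfold doses (1 to 10,000 nM) in duplicate for 72 h at 37 °C and 5% CO2. Luminescent ATP viability readings were normalised to vehicle and to a positive control at 10 µM before four-parameter curve fitting.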

HL-60 [3] = test: cell viability (% survival relative to DMSO control); higher = less cytotoxic
In short: as §1

HEL = test: cell viability (% survival relative to DMSO control, bortezomib = 0%); higher = less cytotoxic
In short: (§2)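 Reported values are percent survival from duplicate wells, averaged. Fifteen myeloid leukaemia cell lines were treated in 384-well plates with compounds at 1, 10, 100, 1000 or 10000 nM for 72 h at 37 °C in 5% CO2. Signals from CellTiter-Glo luminescence were scaled with vehicle as 100% and a 10 µM positive control as 0%.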

MV4-11 [4] = test: as above
In short: as §2

BV-173 = test: as above
In short: as §2

MOLM-13 = test: as above
In short: as §2

KU-812 = test: as above
In short: as §2

NOMO-1 = test: as above
In short: as §2

KG-1 = test: as above
In short: as §2

HL-60 [5] = test: as above
In short: as §2

KCL-22 = test: as above
In short: as §2

LAMA-84 = test: as above
In short: as §2

THP-1 = test: as above
In short: as §2

ML-2 = test: as above
In short: as §2

SHI-1 = test: as above
In short: as §2

Mono-Mac-6 = test: as above
In short: as §2

K-562 = test: as above
In short: as §2

O=c1oc2c(O)c(O)cc3c(=O)oc4c(O)c(O)cc1c4c23 [Benzoaric Acid]
Conditions	area under dose-response curve, co-treatment: AZD3965 100 nM	area under dose-response curve, co-treatment: DMSO vehicle	area under dose-response curve, co-treatment: GSK2194069 100 nM	area under dose-response curve, co-treatment: pictilisib 100 nM	cell viability, 1 nM [%]	cell viability, 10 nM [%]	cell viability, 100 nM [%]	cell viability, 1000 nM [%]	cell viability, 10000 nM [%]
BV-173	–	–	–	–	92.9	101	92.8	97.9	99.1
HEL	–	–	–	–	113	100	107	92.3	114
HL-60 [1]	< 0.0301	< 0.0301	0.0302	0.0302	–	–	–	–	–
HL-60 [5]	–	–	–	–	94.6	106	90.7	92	102
K-562	–	–	–	–	111	93.6	94.9	87.7	90.1
KCL-22	–	–	–	–	100	111	99	97.8	124
KG-1	–	–	–	–	103	107	96.6	90.4	120
KU-812	–	–	–	–	98.4	97	95.1	92.4	110
LAMA-84	–	–	–	–	101	95.9	98.9	94.6	105
ML-2	–	–	–	–	94.7	101	95.9	95.1	108
MOLM-13	–	–	–	–	92.9	99.6	96	92.9	110
MV4-11 [4]	–	–	–	–	107	90.5	98.8	94.2	97.2
Mono-Mac-6	–	–	–	–	108	109	103	92.5	118
NOMO-1	–	–	–	–	102	104	104	99.9	102
SHI-1	–	–	–	–	97.7	106	99.7	94.3	120
THP-1	–	–	–	–	102	97.3	94.3	99.4	100

Conditions	IC50 (cell viability) [µM]
MV4-11 [2]	> 10

cell viability [%], HL-60 [3]
Conditions	0.001 µM	0.01 µM	0.1 µM	1 µM	10 µM
co-treatment: AZD3965 100 nM	98.61 ± 0.51	96.4 ± 5.9	101 ± 5.7	99.21 ± 0.23	99.13 ± 0.98
co-treatment: DMSO vehicle	102.3 ± 0.26	100.2 ± 0.36	99.9 ± 1.1	102 ± 4.1	100 ± 7.2
co-treatment: GSK2194069 100 nM	101 ± 0.64	97.6 ± 3.1	95.1 ± 1.7	94.3 ± 0.58	100 ± 3.9
co-treatment: pictilisib 100 nM	106 ± 9.2	104 ± 17	101.4 ± 0.41	99.2 ± 1.9	96.3 ± 2.1
